Among the test systems are SK-MEL-2 melanoma; HS 578T breast; UO-31 renal; SF-295 CNS; SNB-19 CNS; HT29 colon; COLO 205 colon; SF-268 CNS; ACHN renal; MOLT-4 leukemia; SK-MEL-5 melanoma; CAKI-1 renal; SW-620 colon; MDA-N; UACC-257 melanoma; K-562 leukemia; UACC-62 melanoma; HCT-15 colon; T-47D breast.
Holding throughout (experiment): inhibition of tumour cell growth, NCI panel, 48 h

This note sets out measurements from PubChem BioAssay (NCI).

The structures appear in SMILES notation.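 Following 48 hours of exposure in 96-well plates, responses at five concentrations were used to interpolate endpoints linearly. TGI denotes the concentration required for complete inhibition of growth.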 Where only a bound is given, the exact number is not on record here.

As to `Oc1[nH]c2ccccc2c1N=NC(=S)N1CCCC1`, the TGI is 33.2 µM in the assay on SK-MEL-2 melanoma; more than 72.9 µM in the assay on HS 578T breast; 11.3 µM in the assay on UO-31 renal; 17.1 µM in the assay on SF-295 CNS; more than 43.8 µM in the assay on SNB-19 CNS; more than 53.5 µM with HT29 colon. In addition, the TGI with COLO 205 colon was 27.5 µM; in the assay on SF-268 CNS it was more than 58.3 µM; in the assay on ACHN renal it was 4.55 µM; in the assay with MOLT-4 leukemia it was 5.75 µM; in the assay with SK-MEL-5 melanoma, 8.5 µM; in the assay with CAKI-1 renal, 10.8 µM. Also, the TGI was 52.7 µM with SW-620 colon; 38.8 µM in the assay on MDA-N; 29.6 µM in the assay on UACC-257 melanoma; more than 42.7 µM with K-562 leukemia; 18.2 µM in the assay with UACC-62 melanoma; 4.29 µM with HCT-15 colon. Besides, the TGI with T-47D breast came out at 85.1 µM.
As for `NC(N)=NS(=O)(=O)c1ccc(NNc2c3ccccc3nc3c(C(=O)Nc4ccc(S(N)(=O)=O)cc4)cccc23)cc1`, the TGI was 46.9 µM in the assay with SK-MEL-2 melanoma; 88 µM with HS 578T breast; more than 100 µM in the assay with UO-31 renal; more than 100 µM with SF-295 CNS; more than 100 µM in the assay with SNB-19 CNS; 56.1 µM with HT29 colon. Besides, the TGI in the assay on COLO 205 colon is more than 100 µM; with SF-268 CNS, more than 100 µM; in the assay with ACHN renal, more than 100 µM; in the assay with MOLT-4 leukemia it was 70.6 µM; in the assay with SK-MEL-5 melanoma it was more than 100 µM; in the assay with CAKI-1 renal, more than 100 µM. Moreover, the TGI in the assay on SW-620 colon is more than 100 µM; in the assay with MDA-N, more than 100 µM; in the assay on UACC-257 melanoma it was more than 100 µM; in the assay with K-562 leukemia, 69.9 µM; in the assay with UACC-62 melanoma it was more than 100 µM; with HCT-15 colon it was more than 100 µM. The same compound registered a TGI in the assay on T-47D breast of more than 100 µM.
Consider `CN(CC#N)C(=O)Cc1ccc([N+](=O)[O-])cc1`, for which the TGI in the assay with SK-MEL-2 melanoma, with HS 578T breast, with UO-31 renal, with SF-295 CNS, in the assay with SNB-19 CNS and in the assay on HT29 colon was more than 10 µM in each case. Moreover, the TGI in the assay with COLO 205 colon, in the assay with SF-268 CNS, in the assay with ACHN renal, with MOLT-4 leukemia, in the assay on SK-MEL-5 melanoma and in the assay with CAKI-1 renal was more than 10 µM each time. In addition, the TGI with SW-620 colon, in the assay with MDA-N, in the assay with UACC-257 melanoma, with K-562 leukemia, in the assay on UACC-62 melanoma and in the assay with HCT-15 colon was more than 10 µM throughout. In the assay on T-47D breast, the TGI was more than 10 µM.
For the compound `CC1(C)C(=O)C2(C#N)CCC1C2` (stereo not drawn), the TGI with SK-MEL-2 melanoma, in the assay with HS 578T breast, in the assay on UO-31 renal, in the assay with SF-295 CNS, with SNB-19 CNS and in the assay on HT29 colon was more than 100 µM each time. The TGI in the assay with COLO 205 colon, in the assay on SF-268 CNS, in the assay with ACHN renal, with MOLT-4 leukemia, with SK-MEL-5 melanoma and in the assay on CAKI-1 renal was more than 100 µM each time. For the same compound, the TGI with SW-620 colon, with MDA-N, with UACC-257 melanoma, with K-562 leukemia, with UACC-62 melanoma and in the assay with HCT-15 colon was more than 100 µM throughout. In addition, in the assay with T-47D breast, the TGI was more than 100 µM.
Regarding `O=C(CCc1cccc(O)c1)NCCc1cccc(OCc2ccccc2)c1`, the TGI was found to be 32.3 µM in the assay on SK-MEL-2 melanoma; 40.3 µM in the assay with HS 578T breast; 33.4 µM in the assay on UO-31 renal; 32.9 µM with SF-295 CNS; 63.7 µM with SNB-19 CNS; 30.7 µM with HT29 colon. Besides, the TGI with COLO 205 colon was 38 µM; with SF-268 CNS, 43 µM; in the assay with ACHN renal, more than 78.3 µM; with MOLT-4 leukemia, 43.5 µM; with SK-MEL-5 melanoma it was 29.7 µM; in the assay on CAKI-1 renal, more than 72.2 µM. For the same compound, the TGI was more than 56.5 µM with SW-620 colon; 39 µM in the assay on MDA-N; 34.2 µM in the assay with UACC-257 melanoma; 71.3 µM with K-562 leukemia; 28.4 µM in the assay with UACC-62 melanoma; 49.3 µM in the assay on HCT-15 colon. For the same compound, the TGI in the assay on T-47D breast was determined as 55 µM.
For `COc1ccc(-n2c(=O)n(C)c(=O)n2-c2c(C)c(C)c(C)c(C)c2C)cc1`, the TGI in the assay on SK-MEL-2 melanoma, in the assay on HS 578T breast, in the assay with UO-31 renal, in the assay with SF-295 CNS, in the assay with SNB-19 CNS and with HT29 colon was more than 100 µM throughout. Besides, the TGI with COLO 205 colon, in the assay on SF-268 CNS, in the assay on ACHN renal, with MOLT-4 leukemia, with SK-MEL-5 melanoma and in the assay with CAKI-1 renal was more than 100 µM each time. Also, the TGI in the assay with SW-620 colon, in the assay on MDA-N, with UACC-257 melanoma, in the assay on K-562 leukemia, in the assay with UACC-62 melanoma and with HCT-15 colon was more than 100 µM each time. The compound further returned a TGI in the assay on T-47D breast of more than 100 µM.
Consider `COC(=O)c1ccc(NCc2cc(O)ccc2O)cc1O`, for which the TGI is 37.4 µM with SK-MEL-2 melanoma; more than 68.1 µM with HS 578T breast; 5.61 µM with UO-31 renal; 27.2 µM in the assay on SF-295 CNS; 31.8 µM in the assay with SNB-19 CNS; 34.4 µM with HT29 colon. Moreover, the TGI in the assay on COLO 205 colon worked out at 33.7 µM; in the assay with SF-268 CNS it was 21.8 µM; in the assay with ACHN renal it was 22.2 µM; in the assay with MOLT-4 leukemia, 8.49 µM; in the assay on SK-MEL-5 melanoma, 26.4 µM; with CAKI-1 renal, 17.7 µM. Besides, the TGI with SW-620 colon was 19.9 µM; with MDA-N, 23.5 µM; in the assay with UACC-257 melanoma, 30.9 µM; with K-562 leukemia it was more than 79.3 µM; in the assay on UACC-62 melanoma it was 34 µM; in the assay on HCT-15 colon, 26.5 µM. This compound had a TGI in the assay with T-47D breast of 37.5 µM.
